Patent US20060057228A1, “Weight loss composition” (Pure World Botanicals, Inc., priority 2004, published 2006)

System: undifferentiated 3T3-L1 cell
Assay: Anti-adipogenesis assay on undifferentiated 3T3-L1 cell
Format: cell-based
Text: The major component of weight gain is the increase and accumulation of fat through adipogenesis process. Adipogenesis is characterized by increase of both fat cell number and fat cell size. The weight loss composition of the present invention, banaba extracts, and some active components which were isolated from banaba have shown strong activity through an inhibitory activity on adipocyte differentiation to block fat cell synthesis to achieve the effect on bodyweight control and body fat loss. The following is the list of the results of anti-adipogenesis assay (Table 4).

[1] = concentration level 0.002% (w/w)
[2] = concentration level 0.004% (w/w)
[3] = concentration level 0.05% (w/w)
[4] = concentration level 0.10% (w/w)

Compound | Percent of inhibitory [1] [%] | Percent of inhibitory [2] [%] | Percent of inhibitory [3] [%] | Percent of inhibitory [4] [%]
COc1c(O)cc2c(=O)oc3c(O)c(O)cc4c(=O)oc1c2c34 [3-O-methylellegic acid] | 97 | 98 |  | 
O=C(O[C@@H]1COC(=O)c2cc(O)c(O)c(O)c2-c2c(cc(O)c(O)c2O)C(=O)O[C@H]1[C@@H]1OC(=O)c2cc(O)c(O)c(O)c2-c2c(O)c(O)c(O)c3c2C(=O)O[C@H]1[C@@H]3O)c1cc(O)c(O)c(O)c1 [Casuarinin] | 100 | 100 | 100 | 100
Banasulin | 96 | 79 | 99 | 
Lagerstroemin | 100 | 100 | 100 | 100
